“Also recorded” adds a separate entry of the source.
Legend:
human skin = assay: Melanoidin formation in vivo on human skin; conditions: low concentrations of transimination nucleophilic catalyst
Procedure: The application areas were allowed to dry for 5 min and were monitored for 14 days, with photographs taken throughout. The subjects were asked not to bathe for the first 24 h. […] Significant differences in the appearance of the application areas were noticeable during the study, and no adverse reactions of any kind were observed. […] The preliminary results of these experiments are promising, and we plan to expand the study to incorporate a larger, statistically significant panel during phase II SBIR studies.

HbA = biological target: T1, HbA (Homo sapiens, UniProt P69905); assay: 5HMF/HbA Schiff base adduct formation with purified HbA, cation-exchange HPLC; type: binding; conditions: for percent Hb adduct (5HMF/HbA): 30 min at room temperature, HbA 1 mg/ml PBS 7.4
T1 construct: purified HbA (1 mg/ml), from an anonymous human donor; from tissue; host or cells: blood of an anonymous human donor (purified HbA)
Procedure: The isolated imine of Example 1, formed by reacting p-aminobenzoic acid and 5-hydroxymethyl furfural, reacts with hemoglobin at faster rates than 5HMF. The therapeutic imine was synthesized according to Example 1. To a solution of purified HbA (1 mg/ml), from an anonymous human donor, in PBS 7.4 was added equivalent amounts of the therapeutic imine of AIC (1 mM), or 5HMF (1 mM). The HbA solutions show a new peak (˜7.1 min) on cation-exchange HPLC (Table 2) that elutes prior to the unmodified HbA peak (˜8.2 min). The new peak represents the […] formed between 5HMF and HbA and can be quantified by integration of the representative peaks. […] The initial rate of Schiff base adduct formation between the therapeutic imine and HbA is nearly 10 times faster than the rate of formation between 5HMF and HbA, as determined by cation-exchange HPLC at room temperature.

HbS [1] = biological target: T2, HbS (Homo sapiens, UniProt P69905); assay: Ex vivo 5HMF/HbS adduct formation in whole blood, AIC vs 5HMF; type: cell-based, BERKγM mouse; conditions: for 5HMF/HbS adduct formed: 30 min at 37° C.
T2 construct: To aliquots of whole blood (100 μL), from the BERKγM mouse; from tissue; host or cells: red cells in whole blood of BERKγM / BERK M transgenic sickle mice (ex vivo incubation, or in vivo after i.v. injection)
Target sequence in this assay (P69905 2-142 limits assumed): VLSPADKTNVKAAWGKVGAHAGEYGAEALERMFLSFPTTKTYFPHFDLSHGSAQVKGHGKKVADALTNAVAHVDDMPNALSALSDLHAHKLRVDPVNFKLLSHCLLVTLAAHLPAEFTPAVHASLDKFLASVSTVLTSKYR

[2] = Stability to air, light and moisture (controlled humidity chamber); type: physicochemical; conditions: 500 mg, light, 22° C., 2 wks
Procedure: The commercial-scale production, distribution and stability of 5HMF, a hygroscopic off-white solid, may be costly as the compound is highly susceptible to degradation upon exposure to air, light and moisture (21). […] To quantify the differences in stability, 500 mg of AIC or 5HMF were placed in a controlled humidity chamber and exposed to light at 22° C. for a period of 2 wks.

hemoglobin = hemoglobin (Homo sapiens, UniProt P69905); assay: Oxygen equilibrium curves of hemoglobin solutions (Hemox Analyzer); type: biochemical; conditions: for n50 (hill coefficient) / ΔP50 (%) / P50: no PABA
Procedure: The oxygen equilibrium curves (OEC) of hemoglobin (1 mg/ml) in phosphate buffer saline pH 7.4 containing 100 mM, 10 mM or 1 mM of the sodium salt of p-aminobenzoate (Sigma) were determined with a Hemox Analyzer (TCS Scientific Corp.). Hemoglobin solutions were incubated at 37° C. for 1 h, in the presence (+) or absence (−) of each compound, as specified in Table 1.

HbS [3] = biological target: T2, HbS; assay: Ex vivo 5HMF/HbS adduct formation in whole blood, PABA/5HMF mixtures; type: cell-based, BERKγM transgenic mouse; conditions: for 5HMF/HbS adduct formed: whole blood
Procedure: Studies were initiated to explore the impact of mixing equimolar concentrations of PABA and 5HMF on the rate of 5HMF/HbS adduct formation in whole blood from a BERKγM transgenic mouse. To aliquots of whole blood (100 μL) was added either 5HMF (2 mM or 5 mM), the sodium salt of PABA (2 mM or 5 mM), or equimolar concentrations of PABA/5HMF (2 mM or 5 mM). […] The rate enhancements are not optimized in these experiments, and additional experiments to account for the differences in rates of transport across the RBC membrane will be performed during Phase II SBIR studies.
Target sequence in this assay (P69905 2-142): as the sequence (P69905 2-142 limits assumed) above

HbS [4] = biological target: T2, HbS; assay: In vivo 5HMF/HbS adduct formation after intravenous injection; set-up: species or system BERK M mice; conditions: 200 mg/kg each
Procedure: BERK M mice were injected (intravenous) with solutions containing either 5HMF (200 mg/kg) or 5HMF (200 mg/kg) and the sodium salt of PABA (200 mg/kg). […] To assess of 5HMF/HbS adduct formation, aliquots of blood were taken at 10 and 30 min, and immediately washed, lysed and subjected to HPLC as previously described.
Target sequence in this assay (P69905 2-142): as the sequence (P69905 2-142 limits assumed) above

sickle cells = conditions: in vitro, high concentrations of 5HMF; cited from earlier work
[5] = mouse, in vivo; cited from earlier work
[6] = Behaviour and toxicity after intravenous injection
T-cell surface amines = assay: Competitive covalent ligation assay, Tucaresol/T-cell adduct formation (flow cytometry); type: cell-based, Balb/c male mice; conditions: 500 μM Tucaresol and/or 1 mM PABA, 30 min, 37° C.
Description: The central hypothesis of our approach involves utilizing PABA to increase the rate of Schiff base formation between Tucaresol and T-cells in order to minimize the concentration of Tucaresol required for efficacy. We used an established competitive covalent ligation assay (2) to examine the influence of PABA on the rate and degree of Schiff base-adduct formation between Tucaresol and T-cells isolated from the spleens of Balb/c male mice. In this assay, the degree of Tucaresol/T-cell adduct formation is inversely proportional to the mean fluorescence intensity (as visualized by ligation with S-NHS-biotin and FITC-avidin). T-cells were incubated for 30 min with 500 μM Tucaresol only (blue column, FIG. 5), 1 mM PABA only (orange column, FIG. 5) or a mixture of 500 μM Tucaresol and 1 mM PABA (red column, FIG. 5) at 37° C. After 30 min, the reducing agent NaCNBH3 was added to selectively reduce Schiff base adducts (chemically trapping the Tucaresol/T-cell adduct). Washed cells were exposed for 1 h to 12.5 μM S-NHS-biotin (Pierce Rockford, Ill.) to ligate unreacted free surface amino groups. After washing, cells were exposed to excess fluorescent avidin (FITC-avidin) (Pierce), fixed and visualized using flow cytometry.

[7] = Melanoidin formation in vitro in glycine/DHA solutions; conditions: glycine (6%) and DHA (6%), 32° C.
Procedure: Solutions of glycine (6%) and DHA (6%) in 100 mM NH4OAc buffer pH 5.5 were incubated in the presence (+) and absence (−) of the sodium salt of PABA (1%) at 32° C.

[8] = humans; cited from earlier work
HIV-positive patients = conditions: cited from earlier work

hemoglobin, sequence (P69905 2-142 limits assumed): as above
hemoglobin, sequence (P68871 2-147 partner limits assumed): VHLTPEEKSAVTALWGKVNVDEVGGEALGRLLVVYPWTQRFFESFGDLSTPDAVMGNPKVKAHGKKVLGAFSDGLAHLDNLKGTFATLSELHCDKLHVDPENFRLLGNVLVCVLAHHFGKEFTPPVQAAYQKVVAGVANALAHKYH
T1 sequence (P69905 2-142 limits assumed): as the sequence (P69905 2-142 limits assumed) above
T1 sequence (P68871 2-147 partner limits assumed): as the sequence (P68871 2-147 partner limits assumed) above

For `CCC=CCCOC(=O)c1ccccc1N` [3-hexen-1-yl anthranilate], the “rate at which melanoidin formation occurs on human skin” value (from here on “rate … on human skin”) (human skin) was “significantly increase the rate”.
For `O=C(O)c1ccc(/N=C/c2ccc(CO)o2)cc1` [AIC, 4-((5-(hydroxymethyl)furan-2-yl)methyleneamino)benzoic acid], the “rate of 5HMF/HbA adduct formation vs 5HMF (in words)” value (HbA; 1 mM AIC or 1 mM 5HMF) was “significantly enhanced rates”, the “percent Hb adduct (5HMF/HbA)” value (HbA; 1 mM) was about 32% and the “initial rate of Schiff base adduct formation with HbA relative to 5HMF” value (HbA; 1 mM, room temperature) was about 10 times. The 5HMF/HbS adduct formed (HbS [1]; 5 mM, whole blood) was 50%, the “rate of 5HMF/HbS adduct formation vs 5HMF (in words)” value (HbS [1]; 5 mM, whole blood, initial rate measured after 10 min) was “significantly faster; also recorded: significantly enhanced rates” and the erythrocyte membrane permeation (HbS [1]; whole blood, 5 mM) was “permeates the erythrocyte membrane”. The “chemical change by 1HNMR spectra and HPLC chromatogram on storage” value [2] was “no changes” and the “color change on storage” value [2] was “did not exhibit a noticeable color change”.
With `O=Cc1ccc(CO)o1` [Example 5HMF, 5-hydroxymethyl-2-furfural] the “n50 (hill coefficient)” value (hemoglobin; Exp A: 1 mM 5HMF, 1 h 37° C.) was 2.50, the “ΔP50 (%)” value (hemoglobin; Exp A: 1 mM 5HMF, 1 h 37° C., vs control P50) was 7.53% and the P50 (hemoglobin; Exp A: 1 mM 5HMF, Hb 1 mg/ml PBS pH 7.4, 1 h 37° C.) was 14.00 mmHg. The P50 (hemoglobin; Exp E: 3 mM 5HMF, 1 h 37° C.) was 8.21 mmHg, the “n50 (hill coefficient)” value (hemoglobin; Exp E: 3 mM 5HMF, 1 h 37° C.) was 1.73 and the “ΔP50 (%)” value (hemoglobin; Exp E: 3 mM 5HMF, 1 h 37° C.) was 45.78%. For the same compound, the P50 (hemoglobin; Exp F: 5 mM 5HMF, 1 h 37° C.) was 5.72 mmHg, the “n50 (hill coefficient)” value (hemoglobin; Exp F: 5 mM 5HMF, 1 h 37° C.) was 1.91 and the “ΔP50 (%)” value (hemoglobin; Exp F: 5 mM 5HMF, 1 h 37° C.) was 62.22%. The “percent Hb adduct (5HMF/HbA)” value (HbA; 1 mM) was 6%, the 5HMF/HbS adduct formed (HbS [1]; 5 mM, whole blood) was 27% and the “chemical change by 1HNMR spectra and HPLC chromatogram on storage” value [2] was “After 3 days, the 5HMF sample has undergone significant chemical changes”. The “color change on storage” value [2] was “becomes yellow after 24 h”, the 5HMF/HbS adduct formed (HbS [3]; 2 mM (equimolar for mixture), 37° C.) was 23% and the 5HMF/HbS adduct formed (HbS [3]; 5 mM (equimolar for mixture), 30 minutes at 37° C.) was 40%. For the same compound, the 5HMF/HbS adduct (HbS [4]; blood taken at 10 min) was 5.1%, the 5HMF/HbS adduct (HbS [4]; blood taken at 30 min) was 4.1% and the “hypoxia-induced formation of sickle cells” value (sickle cells) was “largely inhibited”. For the same compound, the “survival time of mice exposed to severe hypoxia” value [5] was “prolonged the survival time”, the “behavior of mice after injection” value ([6]; 200 mg/kg, intravenous) was “became lethargic and exhibited noticeable changes in behavior” and the convulsion and death ([6]; higher concentrations of 5HMF (300-500 mg/kg)) was “caused mice to convulse and die”.
In the case of `CC1CCC(C(C)C)C(OC(=O)c2ccccc2N)C1` (stereo not drawn) [Menthyl-o-aminobenzoate], the “rate … on human skin” value (human skin) is reported as “significantly increase the rate”.
With `Nc1ccccc1C(=O)O` [OABA, o-aminobenzoic acid] the “rate … on human skin” value (human skin) was “significantly increase the rate”.
In the case of `Nc1ccc(C(=O)O)cc1` [PABA, p-aminobenzoic acid], the “shift of OEC / change in P50 value vs Hb control” value (hemoglobin; 100 mM, 10 mM or 1 mM PABA, no 5HMF) is reported as “did not shift the OEC or cause a change in the P50 value”, the “new adduct peak by HPLC” value (HbA; PABA only control) is reported as “did not show a new peak” and the “new adduct peak by HPLC” value (HbS [1]; PABA only negative control) is reported as “did not show a new peak”. The “amount of 5HMF/HbS adduct formed in the presence of equimolar PABA (in words)” value (HbS [3]; 2 mM or 5 mM 5HMF with equimolar PABA, FIG. 2) was “significantly increased”, the adduct formation (HbS [3]; PABA only control (2 mM or 5 mM)) was “did not result in any adduct formation” and the “mean fluorescence intensity of T-cells (inversely proportional to Tucaresol/T-cell adduct formation)” value (T-cell surface amines) was “did not exhibit a change in mean fluorescent intensity”. The “rate of darkening of solutions” value ([7]; 100 mM NH4OAc pH 5.5, 1% PABA sodium salt, vs no PABA) was “darkened at faster rates”, the “change of UV-Vis spectrum” value ([7]; 1% PABA) was “changed more rapidly” and the “rate … on human skin” value (human skin) was “significantly increase the rate”. For the same compound, the “daily doses with no reported side effects” value [8] was “below 12 grams”.
For `O=Cc1c(O)cccc1OCc1ccc(C(=O)O)cc1` [Tucaresol, 4(2-formyl-3-hydroxy-phenoxymethyl) benzoic acid], the “CD4+ counts” value (HIV-positive patients; HIV-positive patients) is listed as “increase in CD4+ counts”, the HIV viraemia (HIV-positive patients; HIV-positive patients) is listed as “unaffected” and the “Tucaresol-related serious adverse events (patients)” value (HIV-positive patients; after the first dose) is listed as 2/21.
With `CCCCOC(=O)c1ccccc1N` [butyl anthranilate] the “rate … on human skin” value (human skin) was “significantly increase the rate”.
In the case of `CCOC(=O)c1ccccc1N` [ethyl anthranilate], the “rate … on human skin” value (human skin) is reported as “significantly increase the rate”.
With `COC(=O)c1ccccc1N` [methyl anthranilate] the “rate … on human skin” value (human skin) was “significantly increase the rate”.

— patent publication US9365532B1, “Synthesis, composition and use of novel therapeutic and cosmetic Schiff base products formed by reaction of a carbonyl containing moeity with a transimination nucleophilic catalyst and the use of transimination nucleophilic catalysts to increase the rate at which carbonyl containing therapeutic and …” (Nanometics, LLC., priority 2011, dated 2016)
